# Reference: ChEMBL document CHEMBL3879896
# Experiments:
# [1] = target: T1, Enoyl-[acyl-carrier-protein] reductase [NADH] (Mycobacterium tuberculosis) (UniProt P9WGR1); assay: Inhibition of Mycobacterium tuberculosis InhA using octenoyl-CoA as substrate assessed as decrease in NADH consumption at 40 uM measured for 10 mins relative to control
# T1 sequence (whole entry): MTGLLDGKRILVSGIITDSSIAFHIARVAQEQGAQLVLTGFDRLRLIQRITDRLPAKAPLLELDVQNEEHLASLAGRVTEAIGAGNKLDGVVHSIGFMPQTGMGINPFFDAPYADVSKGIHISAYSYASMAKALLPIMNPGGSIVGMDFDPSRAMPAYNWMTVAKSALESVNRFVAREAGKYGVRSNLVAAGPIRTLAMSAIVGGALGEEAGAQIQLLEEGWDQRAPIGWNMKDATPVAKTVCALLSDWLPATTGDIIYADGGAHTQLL
# [2] = Cytotoxicity against mouse embryonic stem cells; assay type: cell-based; details: embryonic stem cell
# [3] = Cytotoxicity against human kidney cells; assay type: cell-based
# [4] = Cytotoxicity against human lung cells; assay type: cell-based
Structure (SMILES),inhibition [1] [%],other results
O=[N+]([O-])c1ccccc1-c1cnn(-c2nccc(C(F)(F)F)n2)c1,14,–
O=C(Cc1ccccc1F)NCCc1ccccc1,45,–
CC(C)C1C2CCC(NC(=O)CCCc3c[nH]c4ccccc34)C1C2 (stereo unspecified),34,–
CCCC(=O)C1(c2ccccc2)CCN(C(=O)c2ccc3[nH]ccc3c2)CC1,–,Activity [2]: 46 to 50 µM; Activity [3]: 23 to 48 µM; Activity [4]: 33 to 50 µM
O=C(Cc1ccccc1F)NCCC(c1ccccc1)c1ccccc1,63,–
FC(F)(F)c1ccnc(-n2cc(-c3cccnc3)cn2)n1,36,–
CC(C)=CCC/C(C)=C/CNC(=O)CCCc1c[nH]c2ccccc12,51,–
COc1cc(CCNC(=O)CCCc2c[nH]c3ccccc23)cc(OC)c1,21,–
O=C(c1ccc2[nH]ccc2c1)N1CCc2ccccc2C1,86,–
CN(Cc1ccco1)C(=O)c1ccc(-c2ccccc2)cc1,29,–
O=C(c1ccc2[nH]ccc2c1)N1CCN(Cc2ccccc2)CC1,62,–
FC(F)(F)c1ccnc(-n2cc(-c3ccc(Cl)cc3)cn2)n1,8,–
CN(CCc1ccccc1)C(=O)c1ccc(-c2ccccc2)cc1,32,–
CS(=O)(=O)c1ccc(-c2cnn(-c3nccc(C(F)(F)F)n3)c2)c([N+](=O)[O-])c1,10,–
COc1ccc(-c2cnn(-c3nccc(C(F)(F)F)n3)c2)cc1,4,–
O=[N+]([O-])c1cc(Cl)ccc1-c1cnn(-c2nccc(C(F)(F)F)n2)c1,82,–
CC(C)=CCC/C(C)=C/CNC(=O)CCc1c[nH]c2ccccc12,73,Activity [2]: 11 to 90 µM; Activity [3]: 41 to 62 µM; Activity [4]: 11 to 48 µM
O=C(c1ccc(-c2ccccc2)cc1)N1CCc2ccccc2C1,27,–
O=C(Cc1ccccc1F)NCCO,34,–
FC(F)(F)c1ccnc(-n2cc(-c3cnccn3)cn2)n1,9,–
O=C(c1ccc2[nH]ccc2c1)N1CCN(C(c2ccccc2)c2ccccc2)CC1,106,–
O=C(Cc1ccccc1F)NCCC1=CCCCC1,56,–
O=C(Cc1ccccc1F)NCCc1cccc(Cl)c1,84,–
O=C(c1cccnc1)c1ccc2[nH]ccc2c1,36,–
FC(F)(F)c1ccnc(-n2cc(-c3ccncn3)cn2)n1,36,–

Structure (SMILES),inhibition [1] [%],other results
Cc1c(C)c(C)c(C(=O)C2CCN(C(=O)c3ccc4[nH]ccc4c3)CC2)c(C)c1C,78,–
O=C(CCCc1c[nH]c2ccccc12)NCc1ccc2c(c1)OCO2,37,–
O=C(c1ccc(F)cc1)C1CCN(C(=O)c2ccc3[nH]ccc3c2)CC1,84,–
O=C(c1ccc2[nH]ccc2c1)N1CCN(c2ccc(F)cc2)CC1,53,–
CC1CN(C(=O)c2ccc3[nH]ccc3c2)CC(C)O1 (stereo unspecified),47,–
FC(F)(F)c1ccnc(-n2cc(-c3nc4ccccc4[nH]3)cn2)n1,36,–
FC(F)(F)c1ccnc(-n2cc(-c3ccc4ccccc4n3)cn2)n1,16,–
COc1ccc(CCNC(=O)Cc2ccccc2F)cc1,63,–
O=C(Cc1ccccc1F)NCCc1c[nH]c2ccccc12,47,–
O=C(c1ccc(-c2ccccc2)cc1)N1CCN(Cc2ccccc2)CC1,27,–
CC(C)C1C2CCC(NC(=O)CCc3c[nH]c4ccccc34)C1C2 (stereo unspecified),28,–
CN(Cc1ccccc1)C(=O)c1ccc(-c2ccccc2)cc1,44,–
O=C(CCCc1c[nH]c2ccccc12)Nc1ccc(N2CCCC2)cc1,28,–
O=C(Cc1ccccc1F)NCc1cccc(Cl)c1,75,–
COc1cc2c(cc1OC)CN(C(=O)c1ccc3[nH]ccc3c1)CC2,86,–
COc1ccc([N+](=O)[O-])c(-c2cnn(-c3nccc(C(F)(F)F)n3)c2)c1,17,–
O=C(c1ccc2[nH]ccc2c1)N1CCN(Cc2ccc3c(c2)OCO3)CC1,51,–
COc1ccccc1N1CCN(C(=O)c2ccc3[nH]ccc3c2)CC1,78,–
O=C(c1ccc2[nH]ccc2c1)N1CCN(c2ccccc2)CC1,73,–
O=C(c1ccc2[nH]ccc2c1)N1CCN(c2ccccn2)CC1,36,–
FC(F)(F)c1ccnc(-n2cc(-c3ccnc4ccccc34)cn2)n1,9,–
O=C(c1ccc2[nH]ccc2c1)N1CCN(C2c3ccccc3-c3ccccc32)CC1,–,Activity [2]: 46 to 52 µM; Activity [3]: 35 to 44 µM; Activity [4]: 24 to 48 µM
FC(F)(F)c1ccnc(-n2cc(-c3cnc4ccccc4n3)cn2)n1,36,–
O=C(Nc1ccc2ccccc2n1)c1ccc2[nH]ccc2c1,16,–
